*1 amine or outer side, *2 acyl side, *3 side chain or, on linkers, in order; H or OH if unused. Where a SMILES comes first, the peptide text is derived from it. Bridges are numbered along the chain shown (N, C = ends). [ ]: non-standard residue; d: D form. The star is where a group is joined. X3 = O=C(O)CN1CCN(CC(=O)O)CCN(CC(=O)NCCCOCCOCCOCCCN*)CCN(CC(=O)O)CC1; DOTA = O=C(O)CN1CCN(CC(=O)O)CCN(CC(=O)*)CCN(CC(=O)O)CC1; Trp(5-Br) = N[C@@H](Cc1c[nH]c2ccc(Br)cc12)C(=O)O; Trp(5-Cl) = N[C@@H](Cc1c[nH]c2ccc(Cl)cc12)C(=O)O; Trp(6-F) = N[C@@H](Cc1c[nH]c2cc(F)ccc12)C(=O)O; Pro(3S-OH) = O=C(O)[C@H]1NCC[C@@H]1O; X29 = c1cc(CNCCN[*:2])cc(C[*:1])c1; X6 = c1cc(CSCCN[*:2])nc(C[*:1])c1; X7 = c1cc(CSCCN[*:2])cc(C[*:1])c1; Hyp = O=C(O)[C@@H]1C[C@@H](O)CN1; X1 = O=C(CN1CCC(N[*:1])CC1)[*:2]; X15 = c1ncc(C[*:1])cc1CSCCN[*:2]; Suc = O=C(CCC(=O)[*:2])[*:1]; hLeu = CC(C)CC[C@H](N)C(=O)O; αMeS = C[C@](N)(CO)C(=O)O; Aib = CC(C)(N)C(=O)O; Sar = CNCC(=O)O Where only a bound is given, the exact number is not on record here.

The target in the experiment is T1, GIPR (CHO-K1-hGIPR cells) (Homo sapiens, UniProt P48546).
T1 construct: host or cells: CHO-K1
T1 sequence (P48546 22-466): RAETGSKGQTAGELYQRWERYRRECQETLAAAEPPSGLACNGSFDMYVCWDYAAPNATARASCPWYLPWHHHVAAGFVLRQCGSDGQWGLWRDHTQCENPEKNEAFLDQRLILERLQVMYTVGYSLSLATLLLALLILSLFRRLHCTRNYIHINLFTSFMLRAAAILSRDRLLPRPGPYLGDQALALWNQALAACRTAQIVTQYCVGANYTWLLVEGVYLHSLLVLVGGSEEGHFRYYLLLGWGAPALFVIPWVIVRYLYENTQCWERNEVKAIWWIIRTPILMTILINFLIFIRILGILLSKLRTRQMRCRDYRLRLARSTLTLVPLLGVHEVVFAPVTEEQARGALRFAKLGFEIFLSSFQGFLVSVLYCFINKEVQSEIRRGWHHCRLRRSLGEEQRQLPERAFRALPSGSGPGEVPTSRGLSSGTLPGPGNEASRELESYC
The experiment is described as follows: FACS binding assay. The settings on record: competition with 20 nM GIP-057, 4° C., 1 hour, read-out: pIC50 Category (converted). Put shortly:
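CHO-K1 cells stably expressing human GIPR were detached with Accutase, suspended at 500.000 cells per mL in PBS with 1% FCS, and washed ice-cold. Bound peptide was detected with 1 μg/mL APC-streptavidin for 30 min on ice.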
As to `CC[C@H](C)[C@@H]1NC(=O)[C@H](CC(C)C)NC(=O)C(C)(C)NC(=O)[C@@H](NC(=O)[C@@H](CC(C)C)NC(=O)[C@H](CCC(=O)O)NC(=O)[C@@H]2CCCN2C(=O)[C@H](Cc2c[nH]c3ccc(Cl)cc23)NC(=O)[C@H](Cc2c[nH]c3ccccc23)NC(=O)[C@H](CC(=O)O)NC(=O)CN2CCC(NC(=O)CN3CCN(CC(=O)O)CCN(CC(=O)O)CCN(CC(=O)O)CC3)CC2)CSCc2cccc(c2)CSCCNC1=O` [GIP-089, DOTA-APAc-Asp-Trp-5Clw-Pro-Glu-leu-[Cys(3MeBn)-Aib-Leu-Ile-AET]] ({DOTA}-[X1]DW[Trp(5-Cl)]PE[dL]C[Aib]LI; linker 8-C via X7), the IC50 was below 10 nM. With `CC[C@H](C)[C@@H]1NC(=O)[C@H](CC(C)C)NC(=O)C(C)(C)NC(=O)[C@@H](NC(=O)[C@@H](CC(C)C)NC(=O)[C@H](CCC(=O)O)NC(=O)[C@@H]2CCCN2C(=O)[C@H](Cc2c[nH]c3ccc(Cl)cc23)NC(=O)[C@H](Cc2c[nH]c3ccccc23)NC(=O)[C@H](CC(=O)O)NC(=O)CCC(=O)NCCCOCCOCCOCCCNC(=O)CN2CCN(CC(=O)O)CCN(CC(=O)O)CCN(CC(=O)O)CC2)CSCc2cccc(n2)CSCCNC1=O` [GIP-090, DOTA-Ttds-Asp-Trp-5Clw-Pro-Glu-leu-[Cys(2Lut)-Aib-Leu-Ile-AET]] ({X3-Suc}-DW[Trp(5-Cl)]PE[dL]C[Aib]LI; linker 7-C via X6), the IC50 was below 10 nM. In the case of `CC[C@H](C)[C@@H]1NC(=O)[C@H](CC(C)C)NC(=O)C(C)(C)NC(=O)[C@@H](NC(=O)[C@@H](CC(C)C)NC(=O)[C@H](CCC(=O)O)NC(=O)[C@@H]2CCCN2C(=O)[C@H](Cc2c[nH]c3ccc(Cl)cc23)NC(=O)[C@H](Cc2c[nH]c3ccccc23)NC(=O)[C@H](CC(=O)O)NC(=O)CCC(=O)NCCCOCCOCCOCCCNC(=O)CN2CCN(CC(=O)O)CCN(CC(=O)O)CCN(CC(=O)O)CC2)CSCc2cncc(c2)CSCCNC1=O` [GIP-091, DOTA-Ttds-Asp-Trp-5Clw-Pro-Glu-leu-[Cys(3Lut)-Aib-Leu-Ile-AET]] ({X3-Suc}-DW[Trp(5-Cl)]PE[dL]C[Aib]LI; linker 7-C via X15), the IC50 is below 10 nM. In the case of `CC[C@H](C)[C@@H]1NC(=O)[C@H](CC(C)C)NC(=O)C(C)(C)NC(=O)[C@@H](NC(=O)[C@@H](CC(C)C)NC(=O)[C@H](CCC(=O)O)NC(=O)[C@@H]2CCCN2C(=O)[C@H](Cc2c[nH]c3ccc(Cl)cc23)NC(=O)[C@H](Cc2c[nH]c3ccccc23)NC(=O)[C@H](CC(=O)O)NC(=O)CCC(=O)NCCCOCCOCCOCCCNC(=O)CN2CCN(CC(=O)O)CCN(CC(=O)O)CCN(CC(=O)O)CC2)CNCc2cccc(c2)CSCCNC1=O` [GIP-092, DOTA-Ttds-Asp-Trp-5Clw-Pro-Glu-leu-[Dap(3MeBn)-Aib-Leu-Ile-AET]], the IC50 is below 10 nM.

Take `CC[C@H](C)[C@@H]1NC(=O)[C@H](CC(C)C)NC(=O)C(C)(C)NC(=O)[C@@H](NC(=O)[C@@H](CC(C)C)NC(=O)[C@H](CCC(=O)O)NC(=O)[C@@H]2CCCN2C(=O)[C@H](Cc2c[nH]c3ccc(Cl)cc23)NC(=O)[C@H](Cc2c[nH]c3ccccc23)NC(=O)[C@H](CC(=O)O)NC(=O)CCC(=O)NCCCOCCOCCOCCCNC(=O)CN2CCN(CC(=O)O)CCN(CC(=O)O)CCN(CC(=O)O)CC2)CSCc2cccc(c2)CNCCNC1=O` [GIP-093, DOTA-Ttds-Asp-Trp-5Clw-Pro-Glu-leu-[Cys(3MeBn)-Aib-Leu-Ile-en]] ({X3-Suc}-DW[Trp(5-Cl)]PE[dL]C[Aib]LI; linker 7-C via X29): the IC50 was below 10 nM.

Regarding `CC[C@H](C)[C@@H]1NC(=O)[C@H](CC(C)C)NC(=O)C(C)(C)NC(=O)[C@@H](NC(=O)[C@@H](CC(C)C)NC(=O)[C@H](CCC(=O)O)NC(=O)[C@@H]2C[C@@H](O)CN2C(=O)[C@H](Cc2c[nH]c3ccc(Cl)cc23)NC(=O)[C@H](Cc2c[nH]c3ccccc23)NC(=O)[C@H](CC(=O)O)NC(=O)CCC(=O)NCCCOCCOCCOCCCNC(=O)CN2CCN(CC(=O)O)CCN(CC(=O)O)CCN(CC(=O)O)CC2)CSCc2cccc(c2)CSCCNC1=O` [GIP-094, DOTA-Ttds-Asp-Trp-5Clw-Hyp-Glu-leu-[Cys(3MeBn)-Aib-Leu-Ile-AET]] ({X3-Suc}-DW[Trp(5-Cl)][Hyp]E[dL]C[Aib]LI; linker 7-C via X7), the IC50 is below 10 nM.

As for `CC[C@H](C)[C@@H]1NC(=O)[C@H](CC(C)C)NC(=O)C(C)(C)NC(=O)[C@@H](NC(=O)[C@@H](CC(C)C)NC(=O)[C@H](CCC(=O)O)NC(=O)[C@@H]2CCCN2C(=O)[C@H](Cc2c[nH]c3ccc(Cl)cc23)NC(=O)[C@H](Cc2c[nH]c3ccccc23)NC(=O)[C@H](CC(=O)O)NC(=O)CCC(=O)NCCCOCCOCCOCCCNC(=O)CN2CCN(CC(=O)O)CCN(CC(=O)O)CCN(CC(=O)O)CC2)CNCc2cccc(c2)C[S+]([O-])CCNC1=O` (stereo partly drawn) [GIP-098, DOTA-Ttds-Asp-Trp-5Clw-Pro-Glu-leu-[Dap(3MeBn)-Aib-Leu-Ile-AETO]], the IC50 is below 10 nM. As for `CC[C@H](C)[C@@H]1NC(=O)[C@H](CCC(C)C)NC(=O)C(C)(C)NC(=O)[C@@H](NC(=O)[C@@H](CC(C)C)NC(=O)[C@H](CCC(=O)O)NC(=O)[C@@H]2CCCN2C(=O)[C@H](Cc2c[nH]c3ccc(Cl)cc23)NC(=O)[C@H](Cc2c[nH]c3ccccc23)NC(=O)[C@H](CC(=O)O)NC(=O)CCC(=O)NCCCOCCOCCOCCCNC(=O)CN2CCN(CC(=O)O)CCN(CC(=O)O)CCN(CC(=O)O)CC2)CSCc2cccc(c2)CSCCNC1=O` [GIP-099, DOTA-Ttds-Asp-Trp-5Clw-Pro-Glu-leu-[Cys(3MeBn)-Aib-Hle-Ile-AET]] ({X3-Suc}-DW[Trp(5-Cl)]PE[dL]C[Aib][hLeu]I; linker 7-C via X7), the figure is below 10 nM. As for `CC[C@H](C)[C@@H]1NC(=O)[C@H](CC(C)C)NC(=O)C(C)(C)NC(=O)[C@@H](NC(=O)[C@@H](CC(C)C)NC(=O)[C@H](CCC(=O)O)NC(=O)CN(C)C(=O)[C@H](Cc2c[nH]c3ccc(Cl)cc23)NC(=O)[C@H](Cc2c[nH]c3ccccc23)NC(=O)[C@H](CC(=O)O)NC(=O)CCC(=O)NCCCOCCOCCOCCCNC(=O)CN2CCN(CC(=O)O)CCN(CC(=O)O)CCN(CC(=O)O)CC2)CSCc2cccc(c2)CSCCNC1=O` [GIP-100, DOTA-Ttds-Asp-Trp-5Clw-Nmg-Glu-leu-[Cys(3MeBn)-Aib-Leu-Ile-AET]] ({X3-Suc}-DW[Trp(5-Cl)][Sar]E[dL]C[Aib]LI; linker 7-C via X7), the IC50 was below 10 nM.

On to `CC[C@H](C)[C@@H]1NC(=O)[C@H](CC(C)C)NC(=O)[C@](C)(CO)NC(=O)[C@@H](NC(=O)[C@@H](CC(C)C)NC(=O)[C@H](CCC(=O)O)NC(=O)[C@@H]2CCCN2C(=O)[C@H](Cc2c[nH]c3ccc(Cl)cc23)NC(=O)[C@H](Cc2c[nH]c3ccccc23)NC(=O)[C@H](CC(=O)O)NC(=O)CCC(=O)NCCCOCCOCCOCCCNC(=O)CN2CCN(CC(=O)O)CCN(CC(=O)O)CCN(CC(=O)O)CC2)CSCc2cccc(c2)CSCCNC1=O` [GIP-101, DOTA-Ttds-Asp-Trp-5Clw-Pro-Glu-leu-[Cys(3MeBn)-Ams-Leu-Ile-AET]] ({X3-Suc}-DW[Trp(5-Cl)]PE[dL]C[αMeS]LI; linker 7-C via X7), for which the IC50 is below 10 nM. As to `CC[C@H](C)[C@@H]1NC(=O)[C@H](CC(C)C)NC(=O)C(C)(C)NC(=O)[C@@H](NC(=O)[C@@H](CC(C)C)NC(=O)[C@H](CCC(=O)O)NC(=O)[C@@H]2[C@@H](O)CCN2C(=O)[C@H](Cc2c[nH]c3ccc(Cl)cc23)NC(=O)[C@H](Cc2c[nH]c3ccccc23)NC(=O)[C@H](CC(=O)O)NC(=O)CCC(=O)NCCCOCCOCCOCCCNC(=O)CN2CCN(CC(=O)O)CCN(CC(=O)O)CCN(CC(=O)O)CC2)CSCc2cccc(c2)CSCCNC1=O` [GIP-102, DOTA-Ttds-Asp-Trp-5Clw-H3p-Glu-leu-[Cys(3MeBn)-Aib-Leu-Ile-AET]] ({X3-Suc}-DW[Trp(5-Cl)][Pro(3S-OH)]E[dL]C[Aib]LI; linker 7-C via X7), the IC50 is below 10 nM. As for `CC[C@H](C)[C@@H]1NC(=O)[C@H](CC(C)C)NC(=O)C(C)(C)NC(=O)[C@@H](NC(=O)[C@@H](CC(C)C)NC(=O)[C@H](CCC(=O)O)NC(=O)[C@@H]2CCCN2C(=O)[C@H](Cc2c[nH]c3ccc(Cl)cc23)NC(=O)[C@H](Cc2c[nH]c3cc(F)ccc23)NC(=O)[C@H](CC(=O)O)NC(=O)CCC(=O)NCCCOCCOCCOCCCNC(=O)CN2CCN(CC(=O)O)CCN(CC(=O)O)CCN(CC(=O)O)CC2)CSCc2cccc(c2)CSCCNC1=O` [GIP-104, DOTA-Ttds-Asp-6Fw-5Clw-Pro-Glu-leu-[Cys(3MeBn)-Aib-Leu-Ile-AET]] ({X3-Suc}-D[Trp(6-F)][Trp(5-Cl)]PE[dL]C[Aib]LI; linker 7-C via X7), the IC50 was below 10 nM.

Take `CC[C@H](C)[C@@H]1NC(=O)[C@H](CC(C)C)NC(=O)C(C)(C)NC(=O)[C@@H](NC(=O)[C@@H](CC(C)C)NC(=O)[C@H](CCC(=O)O)NC(=O)[C@@H]2CCCN2C(=O)[C@H](Cc2c[nH]c3ccc(Br)cc23)NC(=O)[C@H](Cc2c[nH]c3cc(F)ccc23)NC(=O)[C@H](CC(=O)O)NC(=O)CCC(=O)NCCCOCCOCCOCCCNC(=O)CN2CCN(CC(=O)O)CCN(CC(=O)O)CCN(CC(=O)O)CC2)CSCc2cccc(c2)CSCCNC1=O` [GIP-105, DOTA-Ttds-Asp-6Fw-5Brw-Pro-Glu-leu-[Cys(3MeBn)-Aib-Leu-Ile-AET]] ({X3-Suc}-D[Trp(6-F)][Trp(5-Br)]PE[dL]C[Aib]LI; linker 7-C via X7): the IC50 is below 10 nM.
